From US7923465B2, “Cannabinoid receptor ligands, pharmaceutical compositions containing them, and process for their preparation” (priority 2005, dated 2011)
Where a name gives a salt, the structure may show the parent alone. Read-outs that look alike come from different tables or passages of the source.

Legend:
hCB2 = hCB2 (Homo sapiens, UniProt P34972); test: In vitro binding assay using hCB2-CHO membranes, [3H]-CP-55,940 displacement (Protocol IV); design: expressed in transfected cells; host or cells: CHO (hCB2-CHO, generated in-house); conditions: hCB2-CHO membranes, [3H]-CP-55,940 displacement; for inhibition at 0.3 µM: 1 h, read-out: % Displacement Protocol IV
Chain of hCB2 (P34972 whole entry): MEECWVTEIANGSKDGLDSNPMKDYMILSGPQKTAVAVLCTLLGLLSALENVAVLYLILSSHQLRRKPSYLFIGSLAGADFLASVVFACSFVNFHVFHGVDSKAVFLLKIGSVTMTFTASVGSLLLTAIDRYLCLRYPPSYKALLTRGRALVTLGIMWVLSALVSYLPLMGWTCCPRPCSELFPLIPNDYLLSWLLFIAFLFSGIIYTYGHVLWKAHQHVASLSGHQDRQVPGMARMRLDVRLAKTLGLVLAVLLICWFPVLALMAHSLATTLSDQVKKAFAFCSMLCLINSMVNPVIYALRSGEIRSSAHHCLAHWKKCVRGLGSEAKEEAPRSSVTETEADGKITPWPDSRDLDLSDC
In short: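 Displacement of [3H]-CP-55,940 (0.75 nM) from membranes of CHO cells expressing human CB2 (25-50 μg) was measured in Tris-BSA buffer pH 7.4 with 5 mM MgCl2, 1 mM EDTA, 0.1% BSA, 1 h at 30 °C. Test compounds were at 300 nM final; nonspecific binding defined with 0.5 μM CP-55,940. Values are % displacement of specific binding.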

CB1 = CB1 (Rattus norvegicus, UniProt P20272); test: Rat CB1 receptor binding using brain membrane, [3H]SR141716A displacement (Protocol I); design: CB1 receptor present in a rat brain membrane preparation; from tissue; host or cells: rat brain membrane; inhibition: dose or concentration left out as unconfirmed; conditions: for inhibition: 1 h
Chain of CB1 (P20272 whole entry): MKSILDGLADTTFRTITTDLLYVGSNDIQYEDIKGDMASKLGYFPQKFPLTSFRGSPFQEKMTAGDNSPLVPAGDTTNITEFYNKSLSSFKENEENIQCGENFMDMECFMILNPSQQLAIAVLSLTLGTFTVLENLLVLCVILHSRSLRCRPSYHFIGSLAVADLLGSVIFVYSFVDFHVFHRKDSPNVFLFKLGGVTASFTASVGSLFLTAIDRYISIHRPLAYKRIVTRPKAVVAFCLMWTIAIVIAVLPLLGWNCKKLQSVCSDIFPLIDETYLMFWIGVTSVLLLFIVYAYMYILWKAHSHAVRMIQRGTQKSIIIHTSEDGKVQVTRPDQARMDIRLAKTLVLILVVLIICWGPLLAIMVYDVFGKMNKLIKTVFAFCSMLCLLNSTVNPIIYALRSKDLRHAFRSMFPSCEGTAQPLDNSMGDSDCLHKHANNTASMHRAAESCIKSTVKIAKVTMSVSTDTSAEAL
Experimental: I. In Vitro Protocol for Rat CB1 Receptor Binding Using Brain Membrane
In this assay, [^3H]SR141716A (5-(4-chlorophenyl)-1-(2,4-dichlorophenyl)-4-methyl-N-(1-piperidyl)pyrazole-3-carboxamide) was used to bind the CB1 receptor present in a rat brain membrane preparation which can be displaced by unlabeled ligands having affinity to the CB1 receptor.
The assay was performed according to the modified method of Thomas et al., 1998 (JPET 285: 285-292). The total reaction mixture ([…]) contained Tris-BSA buffer (50 mM Tris, pH 7.4 with 1.5% BSA) or unlabeled SR141716A […] or test samples […], [^3H] SR141716A (2 nM) and […] of rat brain membrane. The non-specific binding was defined by […] of SR141716A. The assay mixture was incubated at 37° C. for 1 hour. The reaction was then stopped by rapid filtration under vacuum using Whatman GF/B-96 micro filter plate. A scintillation cocktail was added and radioactive counts were measured using a Topcount beta scintillation counter.
The standard and test sample dilutions were made in an assay buffer containing either ethanol or DMSO at a final concentration of 1%.
The percent (%) displacement by a test ligand was calculated by comparing the specific bound values.

[1] = rat brain membrane, [3H]SR141716A displacement, read-out: % Displacement Protocol I
[2] = read-out: % Displacement Protocol I, rat brain membrane, [3H]SR141716A displacement
[3] = rat brain membrane, [3H]SR141716A displacement

SMILES	melting point	inhibition (CB1; [1])	further results
O=C(NCc1ccccc1)c1nn(-c2ccccc2Br)c2c1C1CC3CC(C1)CC2C3 [Example 102, N(7)-Benzyl-5-(2-bromophenyl)-5,6-diazatetracyclo[7.3.1.1^3,11.0^4,8]tetradeca-4(8),6-diene-7-carboxamide]	20 °C	27.3%	inhibition at 0.3 µM (hCB2): 0.74%
O=C(NN1CCOCC1)c1nn(-c2ccc(Cl)cc2)c2c1C1CC3CC(C1)CC2C3 [Example 103, N(7)-Morpholino-5-(4-chlorophenyl)-5,6-diazatetracyclo[7.3.1.1^3,11.0^4,8]tetradeca-4(8),6-diene-7-carboxamide]	220 °C	22.2%	inhibition at 0.3 µM (hCB2): 6.99%
O=C(NCc1ccc(C(F)(F)F)cc1)c1nn(-c2ccc(Cl)cc2)c2c1C1CC3CC(C1)CC2C3 [Example 116, N(7)-(4-Trifluoromethylbenzyl)-5-(4-chlorophenyl)-5,6-diazatetracyclo[7.3.1.1^3,11.0^4,8]tetradeca-4(8),6-diene-7-carboxamide]			inhibition (CB1; [2]): 24.9%
O=C(NNc1ccccc1Cl)c1nn(-c2ccc(Cl)cc2)c2c1C1CC3CC(C1)CC2C3 [Example 124, N(7)-(2-Chlorophenylamino)-5-(4-chlorophenyl)-5,6-diazatetracyclo[7.3.1.1^3,11.0^4,8]tetradeca-4(8),6-diene-7-carboxamide hydrochloride]			inhibition (CB1; [2]): 80.1%
O=C(NNc1ccc(F)cc1)c1nn(-c2ccc(Cl)cc2)c2c1C1CC3CC(C1)CC2C3 [Example 130, N(7)-(4-Fluorophenylamino)-5-(4-chlorophenyl)-5,6-diazatetracyclo[7.3.1.1^3,11.0^4,8]tetradeca-4(8),6-diene-7-carboxamide]	125 to 127 °C	60.6%	
O=C(NNc1cccc(F)c1)c1nn(-c2ccc(Cl)cc2)c2c1C1CC3CC(C1)CC2C3 [Example 133, N(7)-(3-fluorophenylamino)-5-(4-chlorophenyl)-5,6-diazatetracyclo[7.3.1.1^3,11.0^4,8]tetradeca-4(8),6-diene-7-carboxamide]	203 °C	59.7%	
O=C(c1nn(-c2ccc(Cl)cc2)c2c1C1CC3CC(C1)CC2C3)N1CCCCC1 [Example 141, 7-(4′-Chlorophenyl)-6,7-diazatetracyclo[7.3.1.1^3,11.0^4,8]tetradeca-4(8)-5-dien-5-yl-piperidinomethanone]			% Displacement Protocol I (CB1; [3]): 17%
O=C(Nc1ccccc1)c1nn(-c2ccc(Cl)cc2)c2c1C1CC3CC(C1)CC2C3 [Example 142, N(7)-Phenyl-5-(4′-chlorophenyl)-5,6-diazatetracyclo[7.3.1.1^3,11.0^4,8]tetradeca-4(8)-6-diene-7-carboxamide]			% Displacement Protocol IV (hCB2): 9.86%; % Displacement Protocol I (CB1; [3]): 25%
O=C(NNc1ccc(Cl)cc1Cl)c1nn(-c2ccccc2Cl)c2c1C1CC3CC(C1)CC2C3 [Example 181, N(7)-(2,4-Dichlorophenylamino)-5-(2-chlorophenyl)-5,6-diazatetracyclo[7.3.1.1^3,11.0^4,8]tetradeca-4(8),6-diene-7-carboxamide]	233 to 240 °C	16.4%	
O=C(NCc1ccccc1)c1nn(-c2ccccc2)c2c1C1CCC2C1 (stereo not drawn) [Example 203, N(3)-Benzyl-1-phenyl-4,5,6,7-tetrahydro-1H-4,7-methano-indazole-3-carboxamide]	115 °C	-10.4%	
O=C(NCc1ccccc1)c1nn(-c2ccccc2Cl)c2c1C1CCC2C1 (stereo not drawn) [Example 207, N(3)-Benzyl-1-(2-chlorophenyl)-4,5,6,7-tetrahydro-1H-4,7-methano-indazole-3-carboxamide]		-1.2%	
O=C(Nc1cccc(Br)c1)c1n[nH]c2c1C1(c3ccc(Cl)cc3)CCC2C1 (stereo not drawn) [Example 217, N(3)-(3-Bromophenyl)-4-(4-chlorophenyl)-4,5,6,7-tetrahydro-1H-4,7-methano-indazole-3-carboxamide]		20.5%	inhibition at 0.3 µM (hCB2): 10.7%
COc1ccccc1NC(=O)c1nn(-c2ccc(Cl)cc2)c2c1C1CCC2C1 (stereo not drawn) [Example 218, N(3)-(2-Methoxyphenyl)-1-(4-chlorophenyl)-4,5,6,7-tetrahydro-1H-4,7-methano-indazole-3-carboxamide]	149 to 151 °C	29.9%	
O=C(NCc1ccc(Br)cc1)c1nn(-c2ccc(Cl)cc2)c2c1C1CCC2C1 (stereo not drawn) [Example 225, N(3)-(4-Bromobenzyl)-1-(4-chlorophenyl)-4,5,6,7-tetrahydro-1H-4,7-methano-indazole-3-carboxamide]	181 to 183 °C	31.1%	
O=C(Nc1ccccc1)c1nn(-c2ccc(Cl)cc2Cl)c2c1C1CCC2C1 (stereo not drawn) [Example 243, N(3)-Phenyl-1-(2,4-dichlorophenyl)-4,5,6,7-tetrahydro-1H-4,7-methano-indazole-3-carboxamide]	66 to 68 °C	23.5%	
O=C(NCc1ccccc1Cl)c1nn(-c2ccc(Cl)cc2Cl)c2c1C1CCC2C1 (stereo not drawn) [Example 249, N(3)-(2-Chlorobenzyl)-1-(2,4-dichlorophenyl)-4,5,6,7-tetrahydro-1H-4,7-methano-indazole-3-carboxamide]	117 to 120 °C	47.7%	
O=C(NCCc1ccccc1)c1nn(-c2ccc(Cl)cc2Cl)c2c1C1CCC2C1 (stereo not drawn) [Example 254, N(3)-(2-phenylethyl)-1-(2,4-dichlorophenyl)-4,5,6,7-tetrahydro-1H-4,7-methano-indazole-3-carboxamide]		9.1%	
O=C(NCCc1ccc(F)cc1)c1nn(-c2ccc(Cl)cc2Cl)c2c1C1CCC2C1 (stereo not drawn) [Example 255, N(3)-[2-(4-fluorophenyl)ethyl]-1-(2,4-dichlorophenyl)-4,5,6,7-tetrahydro-1H-4,7-methano-indazole-3-carboxamide]		23.9%	
O=C(NC1CCCCC1)c1nn(-c2ccc(F)cc2)c2c1C1CCC2C1 (stereo not drawn) [Example 279, N(3)-Cyclohexyl-1-(4-fluorophenyl)-4,5,6,7-tetrahydro-1H-4,7-methano-indazole-3-carboxamide]	127 °C		inhibition (CB1; [2]): 62%
O=C(NCc1ccccc1)c1nn(-c2ccc(F)cc2)c2c1C1CCC2C1 (stereo not drawn) [Example 280, N(3)-Benzyl-1-(4-fluorophenyl)-4,5,6,7-tetrahydro-1H-4,7-methano-indazole-3-carboxamide]	104 °C	33%	
O=C(NNc1ccccc1)c1nn(-c2ccc(F)cc2F)c2c1C1CCC2C1 (stereo not drawn) [Example 285, N(3)-Phenylamino-1-(2,4-difluorophenyl)-4,5,6,7-tetrahydro-1H-4,7-methano-indazole-3-carboxamide]	161 °C	61.9%	
O=C(NN1CCCCC1)c1nn(-c2ccc(F)cc2F)c2c1C1CCC2C1 (stereo not drawn) [Example 289, N(3)-Piperidino-1-(2,4-difluorophenyl)-4,5,6,7-tetrahydro-1H-4,7-methano-indazole-3-carboxamide]	143 °C	71.3%	
O=C(NN1CCCCC1)c1nn(-c2ccc(Cl)cc2Cl)c2c1C1c3ccccc3C2C2C(=O)N(c3ccc(Cl)cc3)C(=O)C12 (stereo not drawn) [Example 602, N(12)-Piperidino-16-(4-chlorophenyl)-10-(2,4-dichlorophenyl)-15,17-dioxo-10,11,16-triazapentacyclo[6.5.2.0^2,7.0^9,13.0^14,18]octadeca-2,4,6,9(13),11-pentaene-12-carboxamide]			% Displacement Protocol IV (hCB2): 16.4%; % Displacement Protocol I (CB1; [3]): 4.1%
